# Measured values published in PMC7587356, “High-Throughput Screening for Inhibitors of the SARS-CoV-2 Protease Using a FRET-Biosensor” (Molecules, 2020).
# Counter-ions that a name gives are not always drawn. Like-named read-outs stand apart in the source and are kept apart here.
# Target: SARS-CoV-2 3CLpro (Severe acute respiratory syndrome coronavirus 2, UniProt P0DTD1)
# Assay: biochemical
# Type: biochemical
# Parameters: Replicate_1 / Replicate_2 / mean / mean (LOPAC_screen_w_protease): unit not given here
# Conditions: for inhibition at 5 µM: 4 h; for mean (LOPAC screen with protease) / Replicate_1 (LOPAC screen with protease) / Replicate_2 (LOPAC screen with protease): primary screen at 5 µM
# [1] = sheet LOPAC_screen_w_protease, primary screen with protease, mean of two replicates, read-out: mean
# [2] = sheet LOPAC_screen_w_protease, primary screen with protease, replicate 1, read-out: Replicate_1
# [3] = sheet LOPAC_screen_w_protease, primary screen with protease, replicate 2, read-out: Replicate_2
# [4] = sheet LOPAC_screen_w_protease, primary screen of LOPAC1280 at 5 µM with protease, mean of the two replicates
# [5] = sheet LOPAC_screen_w_protease, primary screen of LOPAC1280 at 5 µM with protease, replicate 1
# [6] = sheet LOPAC_screen_w_protease, primary screen of LOPAC1280 at 5 µM with protease, replicate 2
# [7] = sheet LOPAC_screen_w_protease, primary screen with protease, mean of two replicates
# [8] = sheet LOPAC_screen_w_protease, primary screen with protease, replicate 1
# [9] = sheet LOPAC_screen_w_protease, primary screen with protease, replicate 2
# [10] = LOPAC1280 primary screen with protease, 5 µM compound, mean of two replicates
# [11] = LOPAC1280 primary screen with protease, 5 µM compound, replicate 1
# [12] = LOPAC1280 primary screen with protease, 5 µM compound, replicate 2
# [13] = sheet LOPAC_screen_w_protease, primary screen of LOPAC1280 at 5 µM with protease, mean of the two replicates, read-out: mean
# [14] = sheet LOPAC_screen_w_protease, primary screen of LOPAC1280 at 5 µM with protease, replicate 1, read-out: Replicate_1
# [15] = sheet LOPAC_screen_w_protease, primary screen of LOPAC1280 at 5 µM with protease, replicate 2, read-out: Replicate_2
# [16] = sheet LOPAC_screen_w_protease, LOPAC1280 primary screen at 5 µM, with protease, mean of the two replicates
# [17] = sheet LOPAC_screen_w_protease, LOPAC1280 primary screen at 5 µM, with protease, replicate 1
# [18] = sheet LOPAC_screen_w_protease, LOPAC1280 primary screen at 5 µM, with protease, replicate 2
# [19] = sheet LOPAC_screen_w_protease, primary screen with protease, compound at 5 µM, mean of two replicates
# [20] = sheet LOPAC_screen_w_protease, primary screen with protease, compound at 5 µM, replicate 1
# [21] = sheet LOPAC_screen_w_protease, primary screen with protease, compound at 5 µM, replicate 2
# [22] = LOPAC1280 primary screen with protease, 5 µM compound, replicate 1, read-out: Replicate_1 (LOPAC_screen_w_protease)
# [23] = LOPAC1280 primary screen with protease, 5 µM compound, replicate 2, read-out: Replicate_2 (LOPAC_screen_w_protease)
# [24] = LOPAC1280 primary screen with protease, 5 µM compound, mean of the two replicates
# [25] = sheet LOPAC_screen_w_protease, mean of two replicates
# [26] = sheet LOPAC_screen_w_protease, replicate 1
# [27] = sheet LOPAC_screen_w_protease, replicate 2
molecule,measurement,setting,value
NC12CC3CC(CC(C3)C1)C2 [Amantadine hydrochloride],inhibition at 5 µM,[1],2.48%
same,inhibition at 5 µM,[2],1.91%
same,inhibition at 5 µM,[3],3.05%
"CC(O)C(C)OC(=O)[C@@H]1C[C@@H]2c3cccc4c3c(cn4C(C)C)C[C@H]2N(C)C1.O=C(O)/C=C\C(=O)O (stereo partly drawn) [LY-53,857 maleate]",mean,[4],3.324
same,Replicate_1,[5],1.754
same,Replicate_2,[6],4.894
COc1cccc(NC(=O)/C=C/c2ccc(Cl)cc2)c1 [SB-366791],mean,[7],2.336
same,Replicate_1,[8],3.003
same,Replicate_2,[9],1.669
Oc1ccc2c3c1O[C@H]1[C@@H](O)CC[C@@]4(O)[C@@H](C2)N(CC2CCC2)CC[C@]314 [Nalbuphine hydrochloride],inhibition at 5 µM,read-out: Replicate_1,4.1%
same,inhibition at 5 µM,read-out: Replicate_2,4.27%
same,inhibition at 5 µM,read-out: mean,4.19%
"CCCn1c(=O)c2[nH]c(C3CCCC3)nc2n(CCC)c1=O [8-Cyclopentyl-1,3-dipropylxanthine]",mean (LOPAC_screen_w_protease),[10],1.568
same,Replicate_1 (LOPAC_screen_w_protease),[11],3.936
same,Replicate_2 (LOPAC_screen_w_protease),[12],-0.7999
"Nc1ccn([C@H]2CC[C@@H](CO)O2)c(=O)n1 [2',3'-dideoxycytidine]",inhibition at 5 µM,"sheet LOPAC_screen_w_protease, LOPAC1280 at 5 µM, mean of two replicates, read-out: mean",1.06%
same,inhibition at 5 µM,"sheet LOPAC_screen_w_protease, LOPAC1280 at 5 µM, replicate 1, read-out: Replicate_1",1.73%
same,inhibition at 5 µM,"sheet LOPAC_screen_w_protease, LOPAC1280 at 5 µM, replicate 2, read-out: Replicate_2",0.388%
"N[C@H](C(=O)O)c1cc(O)cc(O)c1 [(S)-3,5-Dihydroxyphenylglycine]",mean,[4],3.456
same,Replicate_1,[5],2.928
same,Replicate_2,[6],3.983
CCCn1c(=O)c2[nH]c(-c3ccc(OCC(=O)Nc4ccc(C#N)cc4)cc3)nc2n(CCC)c1=O [MRS 1754],inhibition at 5 µM,[13],3.78%
same,inhibition at 5 µM,[14],1.48%
same,inhibition at 5 µM,[15],6.08%
Cl.Cl.Clc1cccc(N2CCNCC2)c1,mean,[16],0.4258
same,Replicate_1,[17],0.3435
same,Replicate_2,[18],0.5081
CC[C@H](C)[C@H]1O[C@]2(CC[C@@H]1C)C[C@@H]1C[C@@H](C/C=C(\C)[C@@H](O[C@H]3C[C@H](OC)[C@@H](O[C@H]4C[C@H](OC)[C@@H](O)[C@H](C)O4)[C@H](C)O3)[C@@H](C)/C=C/C=C3\CO[C@@H]4[C@H](O)C(C)=C[C@@H](C(=O)O1)[C@]34O)O2 [Ivermectin],mean,[19],2.889
same,Replicate_1,[20],2.826
same,Replicate_2,[21],2.952
Cc1cccc(C#Cc2ccccc2)n1.Cl,mean,[19],3.1043
same,Replicate_1,[20],2.241
same,Replicate_2,[21],3.968
O=[N+]([O-])c1ccc(O[C@@H]2O[C@H](CO)[C@@H](O)[C@H](O)[C@H]2F)c([N+](=O)[O-])c1,mean,[16],0.5921
same,Replicate_1,[17],1.883
same,Replicate_2,[18],-0.6983
C[C@@H](N)Cc1cnc[nH]1.Cl.Cl,Replicate_1,,2.14
same,Replicate_2,,-0.08051
same,mean,,1.03
CCCCS(=N)(=O)CC[C@H](N)C(=O)O (stereo partly drawn) [L-Buthionine-sulfoximine],inhibition at 5 µM,[22],1.94%
same,inhibition at 5 µM,[23],2.27%
same,mean (LOPAC_screen_w_protease),[24],2.107
"O=C(O)C1=CC(=C(c2ccc(O)c(C(=O)O)c2)c2ccc(O)c(C(=O)O)c2)C=CC1=O [Aurintricarboxylic acid, reference compound]",inhibition at 5 µM,read-out: Replicate_1 (LOPAC screen with protease),31.5%
same,inhibition at 5 µM,read-out: Replicate_2 (LOPAC screen with protease),31.9%
same,inhibition at 5 µM,read-out: mean (LOPAC screen with protease),31.7%
CNC(=O)[C@H]1O[C@@H](n2cnc3c(NCc4cccc(I)c4)ncnc32)[C@H](O)[C@@H]1O [IB-MECA],inhibition at 5 µM,[1],2.39%
same,inhibition at 5 µM,[2],2.72%
same,inhibition at 5 µM,[3],2.06%
CCCCCCCCCCCCCCCCCCOCC(COP(=O)([O-])OCC[N+](C)(C)C)OC (stereo not drawn) [ET-18-OCH3],mean (LOPAC_screen_w_protease),[10],1.443
same,Replicate_1 (LOPAC_screen_w_protease),[11],1.735
same,Replicate_2 (LOPAC_screen_w_protease),[12],1.151
C[C@@]12N[C@@H](Cc3ccccc31)c1ccccc12.O=C(O)/C=C\C(=O)O [(-)-MK-801 hydrogen maleate],mean (LOPAC screen with protease),[25],6.636
same,Replicate_1 (LOPAC screen with protease),[26],5.967
same,Replicate_2 (LOPAC screen with protease),[27],7.306
CCCOc1ccccc1-c1nc2nn[nH]c2c(=O)[nH]1 [Zaprinast],inhibition at 5 µM,[22],2.02%
same,inhibition at 5 µM,[23],1.12%
same,mean (LOPAC_screen_w_protease),[10],1.567
COc1cc2c(cc1C(F)(F)F)N(C(=O)Nc1cc(F)cc(-c3cccnc3)c1)CC2 [SB 228357],mean,[7],2.5367
same,Replicate_1,[8],3.509
same,Replicate_2,[9],1.565
"O=[N+]([O-])c1cc(O)c(O)c([N+](=O)[O-])c1 [3,5-Dinitrocatechol]",mean,[7],2.373
same,Replicate_1,[8],3.489
same,Replicate_2,[9],1.257
O=C(O)CC[N+](=O)[O-] [3-Nitropropionic acid],inhibition at 5 µM,[13],3.54%
same,inhibition at 5 µM,[14],2.8%
same,inhibition at 5 µM,[15],4.28%
CCCN1CCC[C@@H]2Cc3nc(N)ncc3C[C@H]21.Cl.Cl [Quinelorane dihydrochloride],mean,"sheet LOPAC_screen_w_protease, LOPAC1280 primary screen with protease, 5 µM compound, mean of the two replicates",6.182
same,Replicate_1,"sheet LOPAC_screen_w_protease, LOPAC1280 primary screen with protease, 5 µM compound, replicate 1",6.527
same,Replicate_2,"sheet LOPAC_screen_w_protease, LOPAC1280 primary screen with protease, 5 µM compound, replicate 2",5.838
CC(C)(C)NC[C@H](O)COc1nsnc1N1CCOCC1.O=C(O)/C=C\C(=O)O [S(-)-Timolol maleate],mean,"sheet LOPAC_screen_w_protease, primary screen with protease, 5 µM, mean of two replicates",0.01613
same,Replicate_1,"sheet LOPAC_screen_w_protease, primary screen with protease, 5 µM, replicate 1",1.756
same,Replicate_2,"sheet LOPAC_screen_w_protease, primary screen with protease, 5 µM, replicate 2",-1.724
"O=C(O)c1cc(=O)c2c(Cl)cc(Cl)cc2[nH]1 [5,7-Dichlorokynurenic acid]",mean,[4],3.519
same,Replicate_1,[5],3.053
same,Replicate_2,[6],3.985
L-Methionine sulfoximine,Replicate_1 (LOPAC_screen_w_protease),,2.433
same,Replicate_2 (LOPAC_screen_w_protease),,0.2989
same,mean (LOPAC_screen_w_protease),,1.366
CNCCNS(=O)(=O)c1cccc2cnccc12.Cl.Cl [H-8 dihydrochloride],mean (LOPAC screen with protease),[25],10.4369
same,Replicate_1 (LOPAC screen with protease),[26],9.7701
same,Replicate_2 (LOPAC screen with protease),[27],11.1038
COc1ccc2c(c1)[C@@]13CCCC[C@H]1[C@@H](C2)NCC3.Cl [3-Methoxy-morphanin hydrochloride],Replicate_1,,3.105
same,Replicate_2,,3.489
same,mean,,3.297
COC(=O)c1c(-c2cc(OC)c(OC)c(OC)c2)c2ccnc(OCc3ncccn3)c2c(=O)n1Cc1ccnc(C)c1 [T-0156],mean,[16],0.7124
same,Replicate_1,[17],1.2
same,Replicate_2,[18],0.2248
CCCCC1C(=O)N(c2ccccc2)N(c2ccccc2)C1=O [Phenylbutazone],inhibition at 5 µM,"sheet LOPAC_screen_w_protease, LOPAC1280 primary screen with protease, 5 µM compound, mean of the two replicates, read-out: mean",6.15%
same,inhibition at 5 µM,"sheet LOPAC_screen_w_protease, LOPAC1280 primary screen with protease, 5 µM compound, replicate 1, read-out: Replicate_1",6%
same,inhibition at 5 µM,"sheet LOPAC_screen_w_protease, LOPAC1280 primary screen with protease, 5 µM compound, replicate 2, read-out: Replicate_2",6.3%
CN1C(C)(C)CCCC1(C)C [Pempidine tartrate],inhibition at 5 µM,[1],2.3%
same,inhibition at 5 µM,[2],2.5%
same,inhibition at 5 µM,[3],2.11%
N=C(N)N1CCc2ccccc2C1 [Debrisoquin sulfate],inhibition at 5 µM,read-out: Replicate_1,2.87%
same,inhibition at 5 µM,read-out: Replicate_2,3.04%
same,inhibition at 5 µM,read-out: mean,2.96%
"Cc1cccc(C(=O)NCN2CCN(c3ccccc3C#N)CC2)c1.O=C(O)/C=C\C(=O)O [PD 168,077 maleate]",mean,"sheet LOPAC_screen_w_protease, LOPAC1280 at 5 µM, mean of two replicates",1.169
same,Replicate_1,"sheet LOPAC_screen_w_protease, LOPAC1280 at 5 µM, replicate 1",0.792
same,Replicate_2,"sheet LOPAC_screen_w_protease, LOPAC1280 at 5 µM, replicate 2",1.545
O=C1Cc2c([nH]c3ccc(Br)cc23)-c2ccccc2N1 [Kenpaullone],inhibition at 5 µM,read-out: Replicate_1,1.52%
same,inhibition at 5 µM,read-out: Replicate_2,3.46%
same,inhibition at 5 µM,read-out: mean,2.49%
NCCS(=O)(=O)O [Taurine],inhibition at 5 µM,[22],2.66%
same,inhibition at 5 µM,[23],1.18%
same,mean (LOPAC_screen_w_protease),[24],1.917
COc1ccc2[nH]c3c(c2c1)CCNC3,mean,[16],0.4216
same,Replicate_1,[17],0.4542
same,Replicate_2,[18],0.3889
